Measured values as given in ChEMBL document CHEMBL1141678 (Eur J Med Chem, 2008).

Assays:
[1] = target: T1, Cytochrome P450 2C9 (Homo sapiens, UniProt P11712); experiment: Inhibition of human recombinant CYP2C9 in presence of reduced glutathione; type: ADME; details: recombinant enzyme
[2] = target: T2, Cytochrome P450 2B6 (Homo sapiens, UniProt P20813); experiment: Inhibition of human recombinant CYP2B6 in presence of reduced glutathione; type: ADME; details: recombinant enzyme
T2 sequence (P20813 whole entry): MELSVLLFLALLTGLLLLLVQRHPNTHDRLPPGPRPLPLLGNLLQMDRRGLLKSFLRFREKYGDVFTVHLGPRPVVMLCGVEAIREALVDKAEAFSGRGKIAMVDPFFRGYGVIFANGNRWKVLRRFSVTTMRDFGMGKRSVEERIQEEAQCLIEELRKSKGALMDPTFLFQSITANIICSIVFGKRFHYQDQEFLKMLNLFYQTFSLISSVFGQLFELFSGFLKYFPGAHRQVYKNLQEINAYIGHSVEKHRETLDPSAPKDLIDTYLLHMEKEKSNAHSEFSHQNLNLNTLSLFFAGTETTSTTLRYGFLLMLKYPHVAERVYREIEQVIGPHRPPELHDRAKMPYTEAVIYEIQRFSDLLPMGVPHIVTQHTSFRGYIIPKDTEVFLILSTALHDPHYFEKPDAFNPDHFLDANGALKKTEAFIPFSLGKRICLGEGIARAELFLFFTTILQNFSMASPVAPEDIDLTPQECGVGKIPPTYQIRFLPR

[3] = target: T3, Cytochrome P450 2D6 (Homo sapiens, UniProt P10635); experiment: Inhibition of human recombinant CYP2D6 in presence of reduced glutathione; type: ADME; details: recombinant enzyme
[4] = target: T3, Cytochrome P450 2D6; experiment: Inhibition of human recombinant CYP2D6; type: ADME
[5] = target: T4, Cytochrome P450 1A2 (Homo sapiens, UniProt P05177); experiment: Inhibition of human recombinant CYP1A2; details: for log(1/IC50): human
T4 sequence (P05177 whole entry): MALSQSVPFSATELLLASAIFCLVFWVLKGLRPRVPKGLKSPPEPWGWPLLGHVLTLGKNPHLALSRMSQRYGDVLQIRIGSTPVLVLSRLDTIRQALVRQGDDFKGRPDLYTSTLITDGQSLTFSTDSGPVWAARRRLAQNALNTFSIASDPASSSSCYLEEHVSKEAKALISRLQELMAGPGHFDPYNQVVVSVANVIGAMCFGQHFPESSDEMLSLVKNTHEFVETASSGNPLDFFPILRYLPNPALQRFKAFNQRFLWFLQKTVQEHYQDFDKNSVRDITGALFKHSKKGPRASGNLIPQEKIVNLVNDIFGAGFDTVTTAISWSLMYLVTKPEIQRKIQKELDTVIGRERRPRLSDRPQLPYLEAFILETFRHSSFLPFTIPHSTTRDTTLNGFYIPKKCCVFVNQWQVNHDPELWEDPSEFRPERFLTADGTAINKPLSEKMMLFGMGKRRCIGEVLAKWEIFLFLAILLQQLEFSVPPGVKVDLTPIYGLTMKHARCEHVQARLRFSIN

[6] = target: T5, Cytochrome P450 3A4 (Homo sapiens, UniProt P08684); experiment: Inhibition of human recombinant CYP3A4 in presence of reduced glutathione; type: ADME; details: recombinant enzyme
[7] = target: T1, Cytochrome P450 2C9; experiment: Inhibition of human recombinant CYP2C9; type: ADME
[8] = target: T5, Cytochrome P450 3A4; experiment: Inhibition of human recombinant CYP3A4; type: ADME
[9] = target: T3, Cytochrome P450 2D6; experiment: Inhibition of human recombinant CYP2D6 at 100 uM; type: ADME; details: recombinant enzyme
[10] = target: T2, Cytochrome P450 2B6; experiment: (§1) Inhibition of human recombinant CYP2B6 at 100 uM; type: ADME; details: recombinant enzyme
[11] = target: T5, Cytochrome P450 3A4; experiment: Inhibition of human recombinant CYP3A4 at 100 uM; type: ADME; details: recombinant enzyme
[12] = target: T2, Cytochrome P450 2B6; experiment: Inhibition of human recombinant CYP2B6; type: ADME
[13] = target: T6, CYP2B6 (Homo sapiens, UniProt P20813); experiment: as §1; type: ADME
T6 sequence (P20813 whole entry): T2 sequence (P20813 whole entry)

T1 sequence (P11712 whole entry): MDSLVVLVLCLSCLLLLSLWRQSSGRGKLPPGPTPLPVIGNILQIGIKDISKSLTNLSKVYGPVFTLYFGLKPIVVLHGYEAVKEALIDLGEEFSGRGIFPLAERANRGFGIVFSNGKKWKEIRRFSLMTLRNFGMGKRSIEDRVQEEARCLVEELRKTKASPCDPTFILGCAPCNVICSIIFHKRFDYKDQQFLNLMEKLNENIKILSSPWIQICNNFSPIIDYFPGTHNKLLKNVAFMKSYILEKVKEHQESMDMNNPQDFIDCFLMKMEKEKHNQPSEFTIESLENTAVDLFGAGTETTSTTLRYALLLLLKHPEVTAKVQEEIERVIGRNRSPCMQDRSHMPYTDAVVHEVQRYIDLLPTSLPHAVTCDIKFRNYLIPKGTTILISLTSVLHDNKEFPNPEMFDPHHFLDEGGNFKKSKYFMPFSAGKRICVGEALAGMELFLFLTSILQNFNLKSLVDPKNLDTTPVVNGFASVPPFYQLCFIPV
T5 sequence (P08684 whole entry): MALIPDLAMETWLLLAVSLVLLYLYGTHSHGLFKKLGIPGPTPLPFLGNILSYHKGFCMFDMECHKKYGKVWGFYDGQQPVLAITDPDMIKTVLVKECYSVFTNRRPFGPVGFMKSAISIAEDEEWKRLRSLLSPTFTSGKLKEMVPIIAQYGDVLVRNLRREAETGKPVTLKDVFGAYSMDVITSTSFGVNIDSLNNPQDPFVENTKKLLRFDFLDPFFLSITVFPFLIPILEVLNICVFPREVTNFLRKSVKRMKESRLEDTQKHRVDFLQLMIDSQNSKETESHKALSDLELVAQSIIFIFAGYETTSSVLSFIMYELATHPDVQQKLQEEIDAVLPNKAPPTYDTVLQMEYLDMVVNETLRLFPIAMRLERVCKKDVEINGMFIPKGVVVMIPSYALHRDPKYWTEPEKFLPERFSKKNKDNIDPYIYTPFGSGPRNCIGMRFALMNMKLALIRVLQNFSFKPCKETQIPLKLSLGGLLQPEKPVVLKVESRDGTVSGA
T3 sequence (P10635 whole entry): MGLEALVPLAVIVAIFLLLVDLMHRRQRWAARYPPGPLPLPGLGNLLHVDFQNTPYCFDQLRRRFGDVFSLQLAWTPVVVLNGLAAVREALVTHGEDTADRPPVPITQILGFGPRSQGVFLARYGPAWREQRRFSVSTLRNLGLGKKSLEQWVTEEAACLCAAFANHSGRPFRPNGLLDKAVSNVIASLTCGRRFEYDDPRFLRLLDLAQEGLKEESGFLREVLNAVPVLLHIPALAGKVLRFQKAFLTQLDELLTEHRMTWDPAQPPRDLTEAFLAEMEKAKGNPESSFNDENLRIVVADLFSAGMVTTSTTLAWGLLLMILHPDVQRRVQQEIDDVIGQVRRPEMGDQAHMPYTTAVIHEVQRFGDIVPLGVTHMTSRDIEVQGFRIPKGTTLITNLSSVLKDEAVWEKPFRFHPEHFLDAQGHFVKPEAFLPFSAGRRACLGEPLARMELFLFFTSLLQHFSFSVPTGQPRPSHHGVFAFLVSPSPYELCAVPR

| SMILES | Activity [1] | Activity [2] | Activity [3] | IC50 [4] [µM] | IC50 [5] [µM] | log(1/IC50) [5] | Activity [6] | IC50 [7] [µM] | IC50 [8] [µM] | log(1/IC50) ([5]; recombinant CYP1A2) | Activity [9] | Activity [10] | Activity [11] | IC50 [12] [µM] | inhibition at 100 µM [13] [%] |
| --- | --- | --- | --- | --- | --- | --- | --- | --- | --- | --- | --- | --- | --- | --- | --- |
| COc1cc(/C=C/C(=O)/C=C/c2ccc(O)c(OC)c2)ccc1O | Not Active | Not Active | Not Active | 0.6 | 41.5 | 1.382 | Not Active | – | – | – | – | – | – | – | – |
| O=C(/C=C/c1ccc(O)cc1)/C=C/c1ccc(O)cc1 | Not Active | Not Active | Not Active | 2 | – | – | Not Active | 1.8 | – | – | – | – | – | – | – |
| O=C(/C=C/c1ccccc1)/C=C/c1ccccc1 | Not Active | Not Active | Not Active | 68.5 | – | – | Not Active | 67.3 | – | – | – | – | – | – | – |
| COc1cc(/C=C2\CC/C(=C\c3ccc(O)c(OC)c3)C2=O)ccc1O | Not Active | Not Active | Not Active | – | 38.9 | – | Not Active | 2.8 | 64.9 | 1.41 | – | – | – | – | – |
| CN(C)c1ccc(/C=C2\CCC/C(=C\c3ccc(N(C)C)cc3)C2=O)cc1 | Not Active | Not Active | Not Active | – | 2.6 | – | Not Active | – | – | 2.585 | Not Active | Not Active | Not Active | – | – |
| O=C1/C(=C/c2ccc(O)cc2)CC/C1=C\c1ccc(O)cc1 | Not Active | Not Active | Not Active | – | 45.6 | – | Not Active | 9.9 | 5.1 | 1.341 | – | – | – | – | – |
| O=C1/C(=C/c2ccc(O)cc2)CCC/C1=C\c1ccc(O)cc1 | Not Active | Not Active | Not Active | – | – | – | Not Active | 1 | – | – | Not Active | Not Active | Not Active | – | – |
| COc1ccc(/C=C2\CCC/C(=C\c3ccc(OC)cc3)C2=O)cc1 | Not Active | Not Active | Not Active | – | 11 | – | Not Active | – | – | 1.959 | Not Active | Not Active | Not Active | – | – |
| CCc1cc(/C=C2\CC/C(=C\c3cc(CC)c(O)c(CC)c3)C2=O)cc(CC)c1O | Not Active | Not Active | Not Active | – | 36.7 | 1.435 | Not Active | 37.7 | 73.5 | – | – | – | – | – | – |
| Cc1cc(/C=C2\CCC/C(=C\c3cc(C)c(O)c(C)c3)C2=O)cc(C)c1O | Not Active | Not Active | Not Active | – | – | – | Not Active | – | – | – | Not Active | Not Active | Not Active | – | – |
| O=C1/C(=C/c2ccc(C(F)(F)F)cc2)CCC/C1=C\c1ccc(C(F)(F)F)cc1 | Not Active | Not Active | Not Active | – | 10.4 | – | Not Active | – | – | 1.983 | Not Active | Not Active | Not Active | – | – |
| CC(C)(C)c1cc(/C=C2\CC/C(=C\c3cc(C(C)(C)C)c(O)c(C(C)(C)C)c3)C2=O)cc(C(C)(C)C)c1O | Not Active | Not Active | Not Active | 119 | 42.8 | – | Not Active | 55 | – | 1.369 | – | – | – | – | – |
| COc1cc(/C=C2\CC/C(=C\c3cc(OC)c(O)c(OC)c3)C2=O)cc(OC)c1O | Not Active | Not Active | Not Active | – | – | – | Not Active | – | 38.3 | – | – | – | – | 70 | > 20 |
| Cc1ccc(/C=C2\CCC/C(=C\c3ccc(C)cc3)C2=O)cc1 | Not Active | Not Active | Not Active | – | 21 | – | Not Active | – | – | 1.678 | Not Active | Not Active | Not Active | – | – |
| CC(C)(C)c1cc(/C=C2\CCC/C(=C\c3cc(C(C)(C)C)c(O)c(C(C)(C)C)c3)C2=O)cc(C(C)(C)C)c1O | Not Active | Not Active | Not Active | – | – | – | Not Active | – | – | – | Not Active | Not Active | Not Active | – | – |
| O=C1/C(=C/c2cccc(Cl)c2)CCC/C1=C\c1cccc(Cl)c1 | Not Active | Not Active | Not Active | – | 3.4 | – | Not Active | – | – | 2.469 | Not Active | Not Active | Not Active | – | – |
| O=C1/C(=C/c2ccccc2)CCC/C1=C\c1ccccc1 [2,6-DIBENZYLIDENECYCLOHEXANONE] | Not Active | Not Active | Not Active | – | 0.9 | – | Not Active | – | – | 3.046 | Not Active | Not Active | Not Active | – | – |
| COc1cc(/C=C/C(=O)CC(=O)/C=C/c2ccc(O)c(OC)c2)ccc1O [CURCUMIN] | – | – | – | 50.3 | 40 | – | – | – | 16.3 | – | – | – | – | 24.5 | – |
